Experimental data from publication PMC6556873, “Rapid Covalent-Probe Discovery by Electrophile-Fragment Screening” (Journal of the American Chemical Society, 2019).
Like-named read-outs stand apart in the source and are kept apart here.

Tests used:
[1] = molecular target: T1, NUDT7 (Homo sapiens, UniProt P0C024); parameters: Intact protein LC/MS covalent labelling, fragments in pools of five, 200 uM each, 4 °C; conditions: 24 h, 4 °C, pool of five; 200 µM; covalent
T1 construct: residues 14-235, E. coli, pNIC28-Bsa4, N-terminal His6 tag removed by TEV, construct 26672 Da
T1 sequence (P0C024 14-235): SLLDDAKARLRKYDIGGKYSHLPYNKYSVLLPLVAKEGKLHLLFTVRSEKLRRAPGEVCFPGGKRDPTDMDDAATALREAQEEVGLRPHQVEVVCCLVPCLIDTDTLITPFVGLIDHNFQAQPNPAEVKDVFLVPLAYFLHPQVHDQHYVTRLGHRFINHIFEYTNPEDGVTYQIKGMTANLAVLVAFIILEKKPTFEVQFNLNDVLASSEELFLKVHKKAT
Experimental: (§1) Incubations were performed at 200 μM for each compound and 2 μM of protein (10 μM for BSA) for 24 h at 4 °C with moderate shaking. Incubation buffers varied among proteins (PBS pH 7.4 for QSOX1 and BSA; 10 mM HEPES pH 7.5, 0.3 M NaCl, 0.5 mM TCEP for PCAF, UPS8, and NUDT7; […]; 10 mM Na2HPO4 pH 7.5 100 mM NaCl 5 mM β-mercaptoethanol for NV3CP; 20 mM Na phosphate pH 7.5 for NNMT; […]. The reaction was stopped by quenching with formic acid, 0.4% final concentration. Each protein was incubated with the electrophilic library in pools of five compounds per well. The pool’s composition maximized the difference in mass between fragments in the same well. Incubations were performed with each fragment at 200 μM, for 24 h at 4 °C, to allow the screening of proteins that are not stable for long time periods at higher temperatures. Following incubation, we used intact protein [compound left out] chromatography/mass spectrometry (LC/MS) to identify the fragments and quantify their labeling (Figure 3A). […] There was good agreement between the percent of labeling of NUDT7 by 100 random individual compounds and that obtained in pools of five (R^2=0.78; Figure S6 and Data set 2 in the Supporting Information).

[2] = molecular target: T2, OTUB2 (OTUB2A) (Homo sapiens, UniProt Q96DC9); parameters: Intact protein LC/MS covalent labelling, fragments in pools of five, 200 uM each, 4 °C; conditions: 24 h, 4 °C, pool of five; 200 µM; covalent
T2 construct: full length residues 1-234, E. coli BL21(DE3)-R3, His tag removed by TEV, construct 27312 Da
T2 sequence (Q96DC9 1-234): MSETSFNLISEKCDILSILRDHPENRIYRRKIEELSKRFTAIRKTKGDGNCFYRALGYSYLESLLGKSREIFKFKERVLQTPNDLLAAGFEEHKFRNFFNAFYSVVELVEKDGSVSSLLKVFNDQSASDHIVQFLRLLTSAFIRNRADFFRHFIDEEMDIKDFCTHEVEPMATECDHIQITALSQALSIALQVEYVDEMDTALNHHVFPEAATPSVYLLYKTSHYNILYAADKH
Experimental: as §1

[3] = molecular target: T3, PCAF (Homo sapiens, UniProt Q92831); parameters: Intact protein LC/MS covalent labelling, fragments in pools of five, 200 uM each, 4 °C; conditions: 24 h, 4 °C, pool of five; 200 µM; covalent
T3 construct: gene KAT2B
T3 sequence (Q92831 whole entry, the tested form may be a part): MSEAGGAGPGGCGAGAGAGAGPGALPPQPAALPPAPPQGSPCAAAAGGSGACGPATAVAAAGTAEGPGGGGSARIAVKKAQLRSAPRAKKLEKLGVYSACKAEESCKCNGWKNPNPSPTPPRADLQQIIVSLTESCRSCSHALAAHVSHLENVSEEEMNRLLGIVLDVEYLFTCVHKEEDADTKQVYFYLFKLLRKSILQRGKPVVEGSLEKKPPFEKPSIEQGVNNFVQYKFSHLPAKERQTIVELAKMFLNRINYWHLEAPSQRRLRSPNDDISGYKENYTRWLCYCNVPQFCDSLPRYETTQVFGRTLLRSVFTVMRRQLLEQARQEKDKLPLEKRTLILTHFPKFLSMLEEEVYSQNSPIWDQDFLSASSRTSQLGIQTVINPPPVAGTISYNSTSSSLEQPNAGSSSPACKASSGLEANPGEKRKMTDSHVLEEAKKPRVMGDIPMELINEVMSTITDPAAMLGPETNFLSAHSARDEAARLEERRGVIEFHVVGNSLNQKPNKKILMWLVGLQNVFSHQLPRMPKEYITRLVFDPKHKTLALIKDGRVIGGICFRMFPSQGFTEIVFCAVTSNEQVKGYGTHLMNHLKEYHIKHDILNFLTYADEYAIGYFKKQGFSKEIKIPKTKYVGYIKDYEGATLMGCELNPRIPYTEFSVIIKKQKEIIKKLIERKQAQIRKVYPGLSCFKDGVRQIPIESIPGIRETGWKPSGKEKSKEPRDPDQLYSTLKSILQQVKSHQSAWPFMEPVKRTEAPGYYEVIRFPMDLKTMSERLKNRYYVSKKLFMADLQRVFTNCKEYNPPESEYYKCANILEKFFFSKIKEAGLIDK
Experimental: as §1

[4] = molecular target: T4, BSA (Bos taurus, UniProt P02769); parameters: Intact protein LC/MS covalent labelling, fragments in pools of five, 200 uM each, 4 °C; conditions: 24 h, 4 °C, pool of five; 200 µM; covalent
T4 construct: gene ALB
T4 sequence (P02769 whole entry, the tested form may be a part): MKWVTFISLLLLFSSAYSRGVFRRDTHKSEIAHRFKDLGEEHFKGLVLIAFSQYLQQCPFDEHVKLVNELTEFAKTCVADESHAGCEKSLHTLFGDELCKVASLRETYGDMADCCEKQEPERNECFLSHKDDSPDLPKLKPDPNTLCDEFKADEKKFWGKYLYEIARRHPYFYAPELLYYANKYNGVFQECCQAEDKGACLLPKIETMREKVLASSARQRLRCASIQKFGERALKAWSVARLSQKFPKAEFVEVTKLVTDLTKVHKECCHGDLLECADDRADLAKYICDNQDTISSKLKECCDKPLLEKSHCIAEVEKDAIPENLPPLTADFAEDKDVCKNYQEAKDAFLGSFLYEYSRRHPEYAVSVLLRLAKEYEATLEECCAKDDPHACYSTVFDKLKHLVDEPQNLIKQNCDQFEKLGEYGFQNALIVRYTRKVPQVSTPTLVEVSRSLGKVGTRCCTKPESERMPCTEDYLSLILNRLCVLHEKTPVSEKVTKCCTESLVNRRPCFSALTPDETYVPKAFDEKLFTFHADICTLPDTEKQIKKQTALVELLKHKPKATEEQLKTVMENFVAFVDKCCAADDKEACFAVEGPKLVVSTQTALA
Experimental: as §1

[5] = in vitro; parameters: species or system CCD841, HEK293; conditions: human, hb2 cells, read-out: HB-2 Cells Viability (%)
[6] = in vitro; parameters: species or system HB2, HEK293; conditions: human, ccd841 cells
[7] = in vitro; parameters: species or system HB2, CCD841; conditions: human, hek293 cells

NUDT7 [1]	OTUB2 [2]	PCAF [3]	BSA [4]	SMILES	viability at 48 h, 10 µM [5]	viability at 48 h, 10 µM [6]	viability at 48 h, 10 µM [7]
0.2	0.1	0	0	Cc1ccc(NC(=O)NC(=O)CCl)c(C)c1 [PCM-0102171]	78.8%	53.9%	74.7%
0	0	0	0	CC(=O)Nc1cccc(NC(=O)CCl)c1 [PCM-0102172]	35.9%	53.4%	4.7%
0	0	0	0	COc1ccccc1N1CCN(C(=O)CCl)CC1.Cl [PCM-0102173]	44.1%	76.9%	58.2%
0	0.25	0	0	O=C(CCl)NCc1cccc(Cl)c1 [PCM-0102174]	83.4%	79.9%	74.3%
0.13	0.39	0	0.15	Cc1cc(NC(=O)CCl)ccc1N1CCCC1 [PCM-0102175]	10.2%	45.1%	2.9%
0.1	0.27	0	0	Cc1ccc(NC(=O)CCl)cc1S(N)(=O)=O [PCM-0102177]	8.9%	28.2%	1.4%
0	0	0	0	CN(C(=O)CCl)C1CCS(=O)(=O)C1 (stereo not shown) [PCM-0102178]	56.9%	72.1%	31.5%
0.16	0.55	0	0.24	CC(NC(=O)CCl)c1cccs1 (stereo not shown) [PCM-0102180]	93.5%	78.5%	75.1%
0	0	0	0	O=C(CCl)Nc1cccc(-c2nnc3n2CCCCC3)c1 [PCM-0102181]	51.2%	73.2%	39.2%
0.28	0	0	0	Cc1c(C#N)c(NC(=O)CCl)n(C2CCCC2)c1C [PCM-0102183]	23.9%	56.1%	9.1%
0.05	0	0	0	Cc1cccc(N2CCN(C(=O)CCl)CC2)c1.Cl [PCM-0102185]	13.1%	65.7%	35.9%
0.33	0	0	0	CCN(C(=O)CCl)c1nc2ccccc2s1 [PCM-0102186]	69.7%	16.1%	69.9%
0	0	0	0	O=C(CCl)Nc1nnc(C2CC2)o1 [PCM-0102187]	106%	114%	97.2%

More lines, now with the values behind:

SMILES	NUDT7 [1]	OTUB2 [2]	PCAF [3]	BSA [4]	viability at 48 h, 10 µM [5]	viability at 48 h, 10 µM [6]	viability at 48 h, 10 µM [7]
Cc1c(C#N)c(NC(=O)CCl)n(-c2cccc(F)c2)c1C [PCM-0102146]	0.58	0.1	0	0	25%	47.1%	3.5%
Cc1nnc(NC(=O)CCl)o1 [PCM-0102147]	0	0	0	0	102%	107%	92.2%
O=C(CCl)N1CCC(c2ccccc2)=N1 [PCM-0102150]	0	0	0	0	31.2%	71.8%	32.7%
O=C(CCl)NC(=O)OCc1ccccc1 [PCM-0102153]	0	0.79	0	0	96%	109%	82.8%
O=C(CCl)Nc1cccc(I)c1 [PCM-0102154]	0.24	0.49	0	0	12.7%	49%	1.7%
O=C(CCl)N(CC(F)(F)F)c1ccc(Cl)cc1 [PCM-0102155]	0.79	0	0	0	11.2%	3.5%	4.3%
CC(NC(=O)CCl)C1CC1 (stereo not shown) [PCM-0102157]	0	0.1	0	0	87.6%	103%	111%
O=C(CCl)N1CCc2ccccc21 [PCM-0102160]	0	0	0	0	6.1%	44.6%	16.3%
CCC(C)(C)NC(=O)CCl [PCM-0102161]	0	0.09	0	0	99.3%	100%	116%
NS(=O)(=O)c1cccc(NC(=O)CCl)c1 [PCM-0102162]	0	0.58	0	0	17.4%	35.4%	1.1%
O=C(CCl)Nc1ccc(O)cc1 [PCM-0102163]	0	0.16	0	0	67.8%	60.5%	38.2%
NC(=O)c1c(NC(=O)CCl)sc2c1CCC2 [PCM-0102164]	0.28	0	0	0	27.2%	25.6%	2.6%
Cc1cc(S(N)(=O)=O)cc(NC(=O)CCl)c1C [PCM-0102165]	0.09	0.12	0	0	34.5%	61.3%	8.3%
Cc1cccc(C(=O)O)c1NC(=O)CCl [PCM-0102167]	0	0	0	0	101%	102%	104%
Cc1ccc(-c2csc(NC(=O)CCl)n2)cc1 [PCM-0102168]	0.4	0	0	0	5.5%	67.9%	5.5%
